Results: patent publication US20240239790A1, “7-Morpholino-1,6-Naphthyridin-5-yl Derivatives and Pharmaceutical Compositions Thereof Useful as DNA-PK Inhibitor” (adMare Therapeutics Society, priority 2021, published 2024)
Read-outs that look alike come from different tables or passages of the source.

Legend:
[1] = Microsomal Stability Assay, mouse liver microsomes; type: in vitro ADME; conditions: for microsomal CLint at 0.1 uM: male, CD-1, pH 7.4, mouse liver microsomes 0.1 mg/mL, 0.1 uM compound; for Microsomal Stability Mouse % rem. 60 min: mouse liver microsomes
Experimental: Samples were then mixed and centrifuged. Supernatants were used for HPLC-MS/MS analysis. […] Peak areas corresponding to the test compound were recorded.

[2] = test system: pDNA-PK induction in HCT116 tumour spheroids; assay: Multicellular tumour spheroid + radiation, pDNA-PK (ser2056) inhibition, immunohistochemical endpoint, HCT116; type: cell-based; conditions: Homo sapiens, 20 Gy, 20% O2
Experimental: Multicellular tumour spheroids determination of compound inhibition of pDNA-PK induction following radiation. Tumour spheroids were grown to approximately 0.5 mm in diameter and irradiated with 20 Gy in combination with inhibitor test compounds to determine their potency. Inhibitor concentration for 50% reduction in pDNA-PK induction (IC50) was determined via immunohistochemical staining in spheroid cryosections taken 2 hours following radiation.
(§1) Spheroid+radiation pDNA-PK. Radiation: 20 Gy. Drug: serial dilution 5 or 10 μM down to 3.5 nM (11 wells). Spheroids: 3-6 spheroids per well (300-500 μm diameter). 20% 02 and 5% CO2. 96 well plate format.
Protocol: pre-incubate 1 hours with drug, irradiate with 20 Gy, post-incubate 2 hours with drug, freeze and cryosection ×3 replicates.
Endpoint: fluorescent immunostin pDNA-PK ser2056 and image on microscope.
Analysis: determine EC50 concentration that decreases pDNA-PK induction by 50% after radiation.
Multicellular tumour spheroids determination of compound inhibition of pDNA-PK induction following radiation. Tumour spheroids were grown to approximately 0.5 mm in diameter and irradiated with 20 Gy in combination with inhibitor test compounds to determine their potency. Inhibitor concentration for 50% reduction in pDNA-PK induction (IC50) was determined via immunohistochemical staining in spheroid cryosections taken 2 hours following radiation. For cell survival endpoint 8 Gy radiation was used and 3 hours following radiation spheroids were dissociated, counted and plated for colony forming endpoint.
as §1, with “format. Endpoint: fluorescent immunostain pDNA-PK ser2056 and image on microscope. Analysis: determine EC50 concentrations that decreases pDNA-PK induction by 50% after irradiation.” for “format.”
Multicellular tumour spheroids were used to determine potency of test compounds in a 3D tissue environment using inhibition of pDNA-PK induction following radiation or cell survival as the endpoint. For the pDNA-PK endpoint HCT116 or FaDU tumour spheroids were grown to approximately 0.5 mm in diameter and irradiated with 20 Gy in combination with inhibitor test compounds to determine their potency. Experiments were carried out in 96 well plates containing 0.7 mls of MEM media containing 10% FBS and 10 mM glucose under 20% O2 & 5% CO2 at 37° C. Following dilution of compounds 1:1000 from DMSO stocks, compounds were serially diluted from 10 μM down to 3.5 nM and 5-10 spheroids added. 96 well plates were constantly stirred to avoid spheroids settling during the course of the experiment. The inhibitor concentration for 50% reduction in pDNA-PK induction (EC50) was determined via immunohistochemical staining in spheroid cryosections taken 2 hours following radiation using anti-pDNA-PK (ser 2056) and fixed immediately in formalin following sectioning. For cell survival endpoint 8 Gy radiation was used and, 3 hours following radiation, spheroids were dissociated, counted and plated for colony forming endpoint. Data presented in the table compound potency as EC50 [μM].

[3] = molecular target: T1, DNA-PK phosphorylation at Serine 2056 (Homo sapiens, UniProt P78527); assay: Cellular Assay for Inhibition of DNA-PK Phosphorylation at Serine 2056 in FaDu cells (sandwich ELISA, neocarzinostatin); type: cell-based; conditions: pSer2056 DNA-PK
T1 construct: FaDu cells were purchased from ATCC; host or cells: FaDu
Method in brief: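 pSer2056 and total DNA-PK were measured by sandwich ELISA in BCA-normalised FaDu lysates. Cells had 1 h compound exposure (0.3% DMSO), then 2 h with 1 μg/mL final neocarzinostatin. IC50 was fitted (variable slope) to % inhibition scaled against NCS-stimulated and DMSO-only controls.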

[4] = molecular target: T2, DNA-PK (Homo sapiens, UniProt P78527); assay: DNA-PK Assay for Biochemical Enzymatic Inhibition (ADP Glo Kinase assay); conditions: DNA-PK enzyme
T2 construct: purchased Invitrogen PR9107A
Method in brief: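 Human DNA-PK (25 ng) preincubated 15 min with compounds (ten three-fold dilutions) in HEPES pH 7.5, MgCl2, KCl, calf thymus DNA buffer, then substrate 434.4 μM and ATP 64.4 μM (final) for 60 min at room temperature. ADP-Glo luminescence; percent inhibition fitted by four-parameter regression for IC50.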

[5] = test system: pH2AX induction in HCT116 ATM-/- multicellular tumour spheroids; assay: Prodrug Radiation Sensitization in Multicellular Tumour Spheroids, inhibition of pH2AX induction following radiation; type: cell-based; conditions: Homo sapiens, HCT-116, 20 Gy
Method in brief: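 Endpoint: pH2AX (ser 139) or pDNA-PK (ser 2056) in cryosections fixed 1 or 2 h after 20 Gy, comparing oxygenated outer with hypoxic inner layers. Spheroids of ~0.5 mm (HCT116, FaDu; ATM-deficient cells used) held at 20% or 5% O2, 37 °C, stirred. Prodrug range 3.5 nM–10 μM.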

[6] = test system: FaDu cell line; assay: Prodrug Activation in Hypoxic Stirred Tumour Cell Suspensions; conditions: 10 μM, 4 hours
[7] = HCT-116, 2 h, spheroids, Example 8, read-out: Cell line: HCT116 Immunohistochemical endpoint pDNA-PK inhibition EC50
[8] = HCT-116, 2 hours following radiation, Example 9 Study 2, read-out: Spheroid Cell line: HCT116 Immunohistochemical endpoint pDNA-PK inhibition EC50
[9] = HCT-116, Spheroid, Cell Line: HCT115 (so in the source), 2 hours following radiation, Example 7, read-out: EC50, Immunohistochemical endpoint, pDNA-PK inhibition
[10] = neocarzinostatin 1 μg/mL, Table 1
[11] = 5% O2, inner layers, read-out: Prodrug 5% O2 Inner layers EC50
[12] = 5% O2, outer layers, read-out: Prodrug 5% O2 Outer layers EC50
[13] = 20% O2, outer layers, read-out: Prodrug 20% O2 Outer layers EC50

microsomal CLint at 0.1 uM [1] | Microsomal Stability Mouse % rem. 60 min [1] | EC50 [2, 7] | EC50 [2, 8] | EC50 [2, 9] | IC50 [3, 10] | IC50 ([4]; Table 1) | Fraction of prodrug converted to active form, Hypoxic 0.2% O2 [6] | Fraction of prodrug converted to active form, Oxic 5% O2 [6] | IC50 ([3]; Table 2) | IC50 ([4]; Table 2) | Structure (SMILES) | EC50 [5, 11] | EC50 [5, 12] | EC50 [5, 13]
> 116 µL/min/mg | E (% remaining = 0-25%) | 1000 to 10000 nM | 1000 to 10000 nM | 1000 to 10000 nM | 10000 to 30000 nM | 1 to 10 nM | – | – | – | – | Cn1cc([C@H]2CC[C@@H](Oc3nc(N4CCOCC4)cc4ncc(OCCO)cc34)CC2)cn1 [Compound 5, 2-((5-(((1s,4s)-4-(1-methyl-1H-pyrazol-4-yl)cyclohexyl)oxy)-7-morpholino-1,6-naphthyridin-3-yl)oxy)ethan-1-ol] | – | – | –
– | – | – | – | – | – | – | A (A is 0.15 to 1) | C (C is 0.02 to 0.05) | 10000 to 30000 nM | 10 to 150 nM | Cn1c(COc2cnc3cc(N4CCOCC4)nc(O[C@H]4CC[C@@H](Nc5ncccn5)CC4)c3c2)cnc1[N+](=O)[O-] [LFA118, N-[4-[[3-[(3-Methyl-2-nitro-imidazol-4-yl)methoxy]-7-morpholino-1,6-naphthyridin-5-yl]oxy]cyclohexyl]pyrimidin-2-amine] | 10 to 500 nM | 500 to 1000 nM | 1000 to 10000 nM
> 116 µL/min/mg | E (% remaining = 0-25%) | – | 500 to 1000 nM | 500 to 1000 nM | < 100 nM | 1 to 10 nM | – | – | – | – | CONC(=O)COc1cnc(N[C@H]2CC[C@@H](Oc3nc(N4CCOCC4)cc4ncccc34)CC2)nc1 [Compound 72, N-Methoxy-2-((2-(((1s,4s)-4-((7-morpholino-1,6-naphthyridin-5-yl)oxy)cyclohexyl)amino)pyrimidin-5-yl)oxy)acetamide] | – | – | –
> 116 µL/min/mg | E (% remaining = 0-25%) | – | 500 to 1000 nM | 500 to 1000 nM | 100 to 1000 nM | < 0.5 nM | – | – | – | – | CON(C)C(=O)COc1cnc(N[C@H]2CC[C@@H](Oc3nc(N4CCOCC4)cc4ncccc34)CC2)nc1 [Compound 58, N-Methoxy-N-methyl-2-((2-(((1s,4s)-4-((7-morpholino-1,6-naphthyridin-5-yl)oxy)cyclohexyl)amino)pyrimidin-5-yl)oxy)acetamide] | – | – | –
– | – | – | – | – | – | – | A (A is 0.15 to 1) | C (C is 0.02 to 0.05) | 10000 to 30000 nM | 10 to 150 nM | Cn1c(COc2cnc3cc(N4CCOCC4)nc(O[C@H]4CC[C@@H](NC(=O)c5ncccn5)CC4)c3c2)cnc1[N+](=O)[O-] [LFA116, N-[4-[[3-[(3-Methyl-2-nitro-imidazol-4-yl)methoxy]-7-morpholino-1,6-naphthyridin-5-yl]oxy]cyclohexyl]pyrimidine-2-carboxamide] | 10 to 500 nM | 1000 to 10000 nM | 1000 to 10000 nM

More lines, now with the values behind:

Structure (SMILES) | microsomal CLint at 0.1 uM [1] | Microsomal Stability Mouse % rem. 60 min [1] | EC50 [2, 7] | EC50 [2, 8] | EC50 [2, 9] | IC50 [3, 10] | IC50 ([4]; Table 1) | Fraction of prodrug converted to active form, Hypoxic 0.2% O2 [6] | Fraction of prodrug converted to active form, Oxic 5% O2 [6] | IC50 ([3]; Table 2) | IC50 ([4]; Table 2) | EC50 [5, 11] | EC50 [5, 12] | EC50 [5, 13]
CC(=O)NC(=O)c1cnc2cc(N3CCOCC3)nc(O[C@H]3CC[C@@H](n4ccnc4)CC3)c2c1 [Compound 167, 5-(((1s,4s)-4-(1H-imidazol-1-yl)cyclohexyl)oxy)-N-acetyl-7-morpholino-1,6-naphthyridine-3-carboxamide] | > 116 µL/min/mg | E (% remaining = 0-25%) | 10000 to 100000 nM | 10000 to 100000 nM | 10000 to 100000 nM | 100 to 1000 nM | 1 to 10 nM | – | – | – | – | – | – | –
CONC(=O)c1cnc2cc(N3CCOCC3)nc(O[C@H]3CC[C@@H](n4ccnc4)CC3)c2c1 [Compound 171, 5-(((1s,4s)-4-(1H-imidazol-1-yl)cyclohexyl)oxy)-N-methoxy-7-morpholino-1,6-naphthyridine-3-carboxamide] | < 116 µL/min/mg | G (% remaining = 50-75%) | 1000 to 10000 nM | 1000 to 10000 nM | 1000 to 10000 nM | 1000 to 10000 nM | 1 to 10 nM | – | – | – | – | – | – | –
Cn1cc(-c2cnc3cc(N4CCOCC4)nc(O[C@H]4CC[C@@H](n5ccnc5)CC4)c3c2)cn1 [Compound 158, 4-(5-(((1s,4s)-4-(1H-imidazol-1-yl)cyclohexyl)oxy)-3-(1-methyl-1H-pyrazol-4-yl)-1,6-naphthyridin-7-yl)morpholine] | > 116 µL/min/mg | E (% remaining = 0-25%) | – | – | – | 100 to 1000 nM | 10 to 150 nM | – | – | – | – | – | – | –
c1ccc(-c2cnc3cc(N4CCOCC4)nc(O[C@H]4CC[C@@H](n5ccnc5)CC4)c3c2)cc1 [Compound 156, 4-(5-(((1s,4s)-4-(1H-imidazol-1-yl)cyclohexyl)oxy)-3-phenyl-1,6-naphthyridin-7-yl)morpholine] | > 116 µL/min/mg | E (% remaining = 0-25%) | – | – | – | – | 10 to 150 nM | – | – | – | – | – | – | –
O=C(Nc1ccccc1)N[C@H]1CC[C@@H](Oc2nc(N3CCOCC3)cc3ncccc23)CC1 [Compound 150, 1-((1s,4s)-4-((7-Morpholino-1,6-naphthyridin-5-yl)oxy)cyclohexyl)-3-phenylurea] | > 116 µL/min/mg | E (% remaining = 0-25%) | 500 to 1000 nM | 500 to 1000 nM | 500 to 1000 nM | 100 to 1000 nM | 0.5 to 1 nM | – | – | – | – | – | – | –
Cc1noc(C)c1-c1cnc2cc(N3CCOCC3)nc(O[C@H]3CC[C@@H](n4ccnc4)CC3)c2c1 [Compound 157, 4-(5-(((1s,4s)-4-(1H-imidazol-1-yl)cyclohexyl)oxy)-3-(3,5-dimethylisoxazol-4-yl)-1,6-naphthyridin-7-yl)morpholine] | > 116 µL/min/mg | E (% remaining = 0-25%) | – | – | – | 1000 to 10000 nM | 1 to 10 nM | – | – | – | – | – | – | –
CC1(C)CN(c2cc3ncccc3c(O[C@H]3CC[C@@H](n4ccnc4)CC3)n2)CC(C)(C)O1 [Compound 12, 4-(5-(((1s,4s)-4-(1H-imidazol-1-yl)cyclohexyl)oxy)-1,6-naphthyridin-7-yl)-2,2,6,6-tetramethylmorpholine] | > 116 µL/min/mg | E (% remaining = 0-25%) | – | – | – | – | 10 to 150 nM | – | – | – | – | – | – | –
